The source of these data is PMC8550792, “Evolution of kinase polypharmacology across HSP90 drug discovery” (Cell Chemical Biology, 2021).

One experiment has as its target T1, ABL2/ARG (Homo sapiens, UniProt P42684).
T1 construct: purchased Reaction Biology (HotSpot contract assay)
The experiment in a line: HotSpot in vitro kinase radiometric assay. Type of experiment: biochemical. The note with it: ABL2/ARG, 10uM, ATP 30 uM, Data 1, Data 2; for remaining activity at 10 µM: read-out: % Enzyme Activity (relative to DMSO controls).

Another experiment concerns the target T2, BLK (Homo sapiens, UniProt P51451).
T2 construct: purchased Reaction Biology (HotSpot contract assay)
The experiment in a line: HotSpot in vitro kinase radiometric assay. Type of experiment: biochemical. As to conditions: BLK, 10uM, ATP 10 uM, Data 1, Data 2; for remaining activity at 10 µM: read-out: % Enzyme Activity (relative to DMSO controls). The procedure:
(§1) Accordingly, we selected five additional representative HSP90 inhibitors, at least one from each chemical class, including both synthetic inhibitors and natural products. […]
(§2) This radioisotope binding assay was designed to directly detect the true product without the use of modified substrates, coupling enzymes, or detection antibodies thus enabling to directly measure inhibition of catalytic activity. Test or control compounds were incubated with kinase, substrate, cofactors, and radioisotope-labeled ATP (32P-ɣ-ATP or 33P-ɣ-ATP). The reaction mixtures were then spotted onto filter papers, which bind the radioisotope-labeled catalytic product.

In another experiment the target is T3, LYN B (Homo sapiens, UniProt P07948).
T3 construct: purchased Reaction Biology (HotSpot contract assay)
The experiment in a line: HotSpot in vitro kinase radiometric assay. Type of experiment: biochemical. The note with it: LYN B, 10uM, ATP 20 uM, Data 1, Data 2; for remaining activity at 10 µM: read-out: % Enzyme Activity (relative to DMSO controls). The procedure:
as §1, §2

In a further experiment the target is T4, PDK4/PDKH4 (Homo sapiens, UniProt Q16654).
T4 construct: purchased Reaction Biology (HotSpot contract assay)
The experiment in a line: HotSpot in vitro kinase radiometric assay. Type of experiment: biochemical. As to conditions: PDK4/PDKH4, 10uM, ATP 30 uM, Data 1, Data 2; for remaining activity at 10 µM: read-out: % Enzyme Activity (relative to DMSO controls). The procedure: as §1, §2

A further experiment has as its target T5, c-Src (Homo sapiens, UniProt P12931).
T5 construct: purchased Reaction Biology (HotSpot contract assay)
The experiment in a line: HotSpot in vitro kinase radiometric assay. Type of experiment: biochemical. The note with it: c-Src, 10uM, ATP 15 uM, Data 1, Data 2; for remaining activity at 10 µM: read-out: % Enzyme Activity (relative to DMSO controls). The procedure: as §1, §2

For the next experiment, the target named is T6, PEAK1 (Homo sapiens, UniProt Q9H792).
T6 construct: purchased Reaction Biology (HotSpot contract assay)
The experiment in a line: HotSpot in vitro kinase radiometric assay. The format is biochemical. The note with it: PEAK1, 10uM, ATP 30 uM, Data 1, Data 2; for remaining activity at 10 µM: read-out: % Enzyme Activity (relative to DMSO controls).

A further experiment deals with T7, FGR (Homo sapiens, UniProt P09769).
T7 construct: purchased Reaction Biology (HotSpot contract assay)
The experiment in a line: HotSpot in vitro kinase radiometric assay. The format is biochemical. The note with it: FGR, 10uM, ATP 50 uM, Data 1, Data 2; for remaining activity at 10 µM: read-out: % Enzyme Activity (relative to DMSO controls).

The target of another experiment is T8, FYN (Homo sapiens, UniProt P06241).
T8 construct: purchased Reaction Biology (HotSpot contract assay)
T8 sequence (P06241 whole entry): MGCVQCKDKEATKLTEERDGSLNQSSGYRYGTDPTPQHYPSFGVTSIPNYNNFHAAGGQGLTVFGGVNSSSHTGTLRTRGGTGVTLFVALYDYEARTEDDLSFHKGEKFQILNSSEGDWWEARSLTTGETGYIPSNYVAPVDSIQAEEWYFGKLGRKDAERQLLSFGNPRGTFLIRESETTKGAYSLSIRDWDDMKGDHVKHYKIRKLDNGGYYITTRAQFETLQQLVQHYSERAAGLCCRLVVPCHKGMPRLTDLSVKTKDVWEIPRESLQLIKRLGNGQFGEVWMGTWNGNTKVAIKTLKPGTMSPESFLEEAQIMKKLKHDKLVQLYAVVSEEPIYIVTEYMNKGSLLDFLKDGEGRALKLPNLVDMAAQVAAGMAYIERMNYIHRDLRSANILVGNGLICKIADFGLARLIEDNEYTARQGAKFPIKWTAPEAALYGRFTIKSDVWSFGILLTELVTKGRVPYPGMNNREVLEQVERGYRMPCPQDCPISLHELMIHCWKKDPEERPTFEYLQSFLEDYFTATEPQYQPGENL
The experiment in a line: HotSpot in vitro kinase radiometric assay. Type of experiment: biochemical. As to conditions: FYN, 10uM, ATP 30 uM, Data 1, Data 2; for remaining activity at 10 µM: read-out: % Enzyme Activity (relative to DMSO controls).

The next experiment concerns the target T9, PASK (Homo sapiens, UniProt Q96RG2).
T9 construct: purchased Reaction Biology (HotSpot contract assay)
The experiment in a line: HotSpot in vitro kinase radiometric assay. Type of experiment: biochemical. The note with it: PASK, 10uM, ATP 50 uM, Data 1, Data 2; for remaining activity at 10 µM: read-out: % Enzyme Activity (relative to DMSO controls).
Text: (§3) Accordingly, we selected five additional representative HSP90 inhibitors, at least one from each chemical class, including both synthetic inhibitors and natural products.
(§4) Accordingly, we screened the hit compound and the two leads for kinase off-target inhibition using the 16-kinase panel and the same in vitro catalytic assay used previously.
as §2

For a further experiment, the target named is T10, TRKA (Homo sapiens, UniProt P04629).
T10 construct: purchased Reaction Biology (HotSpot contract assay)
T10 sequence (P04629 33-796): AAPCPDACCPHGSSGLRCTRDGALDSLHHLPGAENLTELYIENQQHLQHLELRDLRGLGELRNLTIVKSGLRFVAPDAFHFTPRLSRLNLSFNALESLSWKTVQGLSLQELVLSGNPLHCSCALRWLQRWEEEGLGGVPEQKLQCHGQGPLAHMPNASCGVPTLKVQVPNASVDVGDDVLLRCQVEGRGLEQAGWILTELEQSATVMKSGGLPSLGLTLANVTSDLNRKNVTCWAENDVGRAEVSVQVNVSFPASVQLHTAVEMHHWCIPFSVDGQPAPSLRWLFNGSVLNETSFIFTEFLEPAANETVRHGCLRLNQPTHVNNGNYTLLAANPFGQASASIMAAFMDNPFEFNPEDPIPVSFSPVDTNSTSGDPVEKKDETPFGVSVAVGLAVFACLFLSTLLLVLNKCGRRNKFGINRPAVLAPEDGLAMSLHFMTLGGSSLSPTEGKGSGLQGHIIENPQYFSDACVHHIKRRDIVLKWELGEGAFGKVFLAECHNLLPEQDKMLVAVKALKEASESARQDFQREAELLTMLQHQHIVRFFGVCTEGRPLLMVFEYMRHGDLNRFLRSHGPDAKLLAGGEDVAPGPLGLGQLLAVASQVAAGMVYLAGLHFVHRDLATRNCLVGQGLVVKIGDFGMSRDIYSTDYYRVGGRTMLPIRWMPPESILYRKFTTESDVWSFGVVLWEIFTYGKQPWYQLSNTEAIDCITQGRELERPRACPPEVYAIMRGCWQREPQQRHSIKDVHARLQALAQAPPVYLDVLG
The experiment in a line: HotSpot in vitro kinase radiometric assay. The note with it: TRKA, 10uM, ATP 100 uM, Data 1, Data 2; for remaining activity at 10 µM: read-out: % Enzyme Activity (relative to DMSO controls). Type of experiment: biochemical.
Text: as §3, §4, §2

The next experiment deals with T11, TRKC (Homo sapiens, UniProt Q16288).
T11 construct: purchased Reaction Biology (HotSpot contract assay)
T11 sequence (Q16288 32-839): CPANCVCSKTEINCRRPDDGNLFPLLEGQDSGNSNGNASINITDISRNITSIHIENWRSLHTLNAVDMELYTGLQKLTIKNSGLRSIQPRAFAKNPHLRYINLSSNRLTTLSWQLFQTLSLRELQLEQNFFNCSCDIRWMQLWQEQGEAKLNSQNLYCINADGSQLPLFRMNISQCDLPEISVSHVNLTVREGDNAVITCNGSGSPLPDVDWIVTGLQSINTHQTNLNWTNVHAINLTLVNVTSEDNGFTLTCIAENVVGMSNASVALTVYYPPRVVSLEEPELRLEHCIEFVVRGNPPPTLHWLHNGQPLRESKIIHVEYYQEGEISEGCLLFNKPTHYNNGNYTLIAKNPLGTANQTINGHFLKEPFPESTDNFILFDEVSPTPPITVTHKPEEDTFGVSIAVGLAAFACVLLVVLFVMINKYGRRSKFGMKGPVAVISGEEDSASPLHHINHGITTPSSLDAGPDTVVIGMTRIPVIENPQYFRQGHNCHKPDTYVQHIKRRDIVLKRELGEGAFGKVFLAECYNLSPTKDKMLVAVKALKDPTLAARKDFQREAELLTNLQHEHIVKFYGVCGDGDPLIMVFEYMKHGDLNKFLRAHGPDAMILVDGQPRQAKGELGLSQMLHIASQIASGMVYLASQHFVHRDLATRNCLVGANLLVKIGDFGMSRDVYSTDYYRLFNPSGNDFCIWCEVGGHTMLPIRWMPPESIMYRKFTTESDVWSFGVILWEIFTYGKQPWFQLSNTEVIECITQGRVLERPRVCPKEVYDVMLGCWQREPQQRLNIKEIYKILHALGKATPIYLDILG
The experiment in a line: HotSpot in vitro kinase radiometric assay. Type of experiment: biochemical. The note with it: TRKC, 10uM, ATP 100 uM, Data 1, Data 2; for remaining activity at 10 µM: read-out: % Enzyme Activity (relative to DMSO controls).

A further experiment concerns the target T12, LCK (Homo sapiens, UniProt P06239).
T12 construct: purchased Reaction Biology (HotSpot contract assay)
The experiment in a line: HotSpot in vitro kinase radiometric assay. Type of experiment: biochemical. The note with it: LCK, 10uM, ATP 15 uM, Data 1, Data 2; for remaining activity at 10 µM: read-out: % Enzyme Activity (relative to DMSO controls).

The next experiment deals with T13, YES/YES1 (Homo sapiens, UniProt P07947).
T13 construct: purchased Reaction Biology (HotSpot contract assay)
T13 sequence (P07947 whole entry): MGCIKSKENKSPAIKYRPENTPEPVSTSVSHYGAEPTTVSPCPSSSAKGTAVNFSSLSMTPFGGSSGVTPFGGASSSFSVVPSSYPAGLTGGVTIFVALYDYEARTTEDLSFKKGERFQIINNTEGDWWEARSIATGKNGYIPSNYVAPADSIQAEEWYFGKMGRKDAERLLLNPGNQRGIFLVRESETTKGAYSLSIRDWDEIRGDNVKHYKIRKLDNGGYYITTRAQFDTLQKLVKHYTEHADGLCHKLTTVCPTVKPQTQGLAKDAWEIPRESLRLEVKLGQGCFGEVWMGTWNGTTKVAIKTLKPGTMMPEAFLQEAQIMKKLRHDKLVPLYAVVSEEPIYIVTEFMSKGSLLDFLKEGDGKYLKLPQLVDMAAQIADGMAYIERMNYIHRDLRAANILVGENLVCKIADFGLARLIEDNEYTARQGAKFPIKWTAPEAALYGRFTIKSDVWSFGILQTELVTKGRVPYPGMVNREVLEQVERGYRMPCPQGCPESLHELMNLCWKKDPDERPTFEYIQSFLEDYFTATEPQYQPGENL
The experiment in a line: HotSpot in vitro kinase radiometric assay. The format is biochemical. The note with it: YES/YES1, 10uM, ATP 50 uM, Data 1, Data 2; for remaining activity at 10 µM: read-out: % Enzyme Activity (relative to DMSO controls).

Another experiment relates to 16-kinase panel. The experiment in a line: 16-kinase panel screening, in vitro radiometric assay. The format is biochemical, human. The note with it: 10 μM.
The next experiment relates to HSP90AB1. More on the design: method as in ChEMBL23 (accessed: 23/08/2018). The note with it: average of reported values; ref ChEMBL23 (accessed: 23/08/2018); cited from earlier work.
The next experiment has as its system TRAP1. More on the design: method as in ChEMBL23 (accessed: 23/08/2018). As to conditions: average of reported values; ref ChEMBL23 (accessed: 23/08/2018); cited from earlier work.
The target of another experiment is ABL1 (Homo sapiens, UniProt P00519). The experiment in a line: HotSpot in vitro kinase radiometric assay. Type of experiment: biochemical. The note with it: ABL1, 10uM, ATP 40 uM, Data 1, Data 2; for remaining activity at 10 µM: read-out: % Enzyme Activity (relative to DMSO controls). Set-up: purchased Reaction Biology (HotSpot contract assay).
The next experiment deals with DDR1 (Homo sapiens, UniProt Q08345). The experiment in a line: HotSpot in vitro kinase radiometric assay. As to conditions: for remaining activity at 10 µM: read-out: % Enzyme Activity (relative to DMSO controls). Type of experiment: biochemical. More on the design: purchased Reaction Biology (HotSpot contract assay).
Chain of DDR1 (Q08345 19-913): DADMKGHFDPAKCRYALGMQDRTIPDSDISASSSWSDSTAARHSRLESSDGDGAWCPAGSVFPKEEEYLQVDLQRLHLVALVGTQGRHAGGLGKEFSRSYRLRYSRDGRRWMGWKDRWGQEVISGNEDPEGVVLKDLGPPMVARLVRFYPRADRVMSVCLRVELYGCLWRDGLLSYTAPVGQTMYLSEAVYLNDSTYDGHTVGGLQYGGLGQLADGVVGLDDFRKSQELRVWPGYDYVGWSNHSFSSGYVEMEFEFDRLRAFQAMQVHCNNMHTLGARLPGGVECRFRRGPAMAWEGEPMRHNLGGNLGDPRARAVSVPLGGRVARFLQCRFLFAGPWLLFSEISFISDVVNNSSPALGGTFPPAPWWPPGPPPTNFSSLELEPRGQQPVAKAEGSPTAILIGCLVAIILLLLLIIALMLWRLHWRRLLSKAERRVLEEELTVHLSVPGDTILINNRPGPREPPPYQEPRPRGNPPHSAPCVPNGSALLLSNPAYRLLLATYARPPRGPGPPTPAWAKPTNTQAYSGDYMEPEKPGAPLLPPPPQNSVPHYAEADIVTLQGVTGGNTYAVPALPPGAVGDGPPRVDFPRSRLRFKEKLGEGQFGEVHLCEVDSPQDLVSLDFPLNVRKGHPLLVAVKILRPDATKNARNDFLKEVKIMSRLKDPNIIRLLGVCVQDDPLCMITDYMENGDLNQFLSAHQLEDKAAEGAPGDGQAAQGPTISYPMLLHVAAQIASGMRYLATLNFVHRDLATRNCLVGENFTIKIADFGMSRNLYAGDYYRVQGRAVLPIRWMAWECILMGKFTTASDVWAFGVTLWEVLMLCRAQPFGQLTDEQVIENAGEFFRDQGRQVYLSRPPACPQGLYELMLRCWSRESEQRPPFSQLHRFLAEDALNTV
In a further experiment the target is T14, PDK2/PDHK2 (Homo sapiens, UniProt Q15119).
T14 construct: purchased Reaction Biology (HotSpot contract assay)
The experiment in a line: HotSpot in vitro kinase radiometric assay. The format is biochemical. The note with it: PDK2/PDHK2, 10uM, ATP 15 uM, Data 1, Data 2. The method, then: as §1, §2

Another experiment relates to 382 unique human kinases. The experiment in a line: biochemical. The format is biochemical. The note with it: cutoff of >85% inhibition at 10 μM; luminespib and ganetespib large kinome panel, others 16-kinase panel.
The mark [1] stands for this setting: DDR1, 10uM, ATP 100 uM, Data 1, Data 2.

Where two headings read alike, the source gives them in different places.

T1 sequence (P42684 whole entry): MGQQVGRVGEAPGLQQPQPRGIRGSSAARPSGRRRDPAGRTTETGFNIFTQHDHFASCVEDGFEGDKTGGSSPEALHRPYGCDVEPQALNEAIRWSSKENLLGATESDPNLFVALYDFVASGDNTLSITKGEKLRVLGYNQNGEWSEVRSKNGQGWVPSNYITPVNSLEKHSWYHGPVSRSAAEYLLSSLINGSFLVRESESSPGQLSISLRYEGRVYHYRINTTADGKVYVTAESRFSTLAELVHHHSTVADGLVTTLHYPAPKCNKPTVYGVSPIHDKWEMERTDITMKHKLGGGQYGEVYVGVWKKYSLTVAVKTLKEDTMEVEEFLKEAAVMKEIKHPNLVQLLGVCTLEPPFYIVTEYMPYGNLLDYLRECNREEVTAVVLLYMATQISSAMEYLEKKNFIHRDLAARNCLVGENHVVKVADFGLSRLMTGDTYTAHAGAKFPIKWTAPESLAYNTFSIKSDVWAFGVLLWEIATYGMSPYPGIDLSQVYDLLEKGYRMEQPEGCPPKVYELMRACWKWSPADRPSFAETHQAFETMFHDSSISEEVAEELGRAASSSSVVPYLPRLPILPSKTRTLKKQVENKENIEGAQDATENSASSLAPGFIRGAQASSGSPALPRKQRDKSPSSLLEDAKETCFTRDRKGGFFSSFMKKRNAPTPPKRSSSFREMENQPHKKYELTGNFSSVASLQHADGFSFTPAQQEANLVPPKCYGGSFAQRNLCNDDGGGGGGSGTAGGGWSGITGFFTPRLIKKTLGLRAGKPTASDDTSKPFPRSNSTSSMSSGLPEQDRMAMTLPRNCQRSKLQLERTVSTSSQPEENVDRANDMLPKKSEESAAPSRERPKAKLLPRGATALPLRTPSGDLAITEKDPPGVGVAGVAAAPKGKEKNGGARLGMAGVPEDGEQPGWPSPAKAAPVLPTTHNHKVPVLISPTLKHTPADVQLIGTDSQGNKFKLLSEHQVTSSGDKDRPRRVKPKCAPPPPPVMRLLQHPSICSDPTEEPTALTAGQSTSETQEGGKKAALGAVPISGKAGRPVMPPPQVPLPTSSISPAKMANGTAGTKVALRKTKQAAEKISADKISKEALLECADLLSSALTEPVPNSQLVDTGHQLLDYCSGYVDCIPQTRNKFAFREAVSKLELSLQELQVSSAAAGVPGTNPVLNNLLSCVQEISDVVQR

For `COC1=C2C[C@@H](C)C[C@H](OC)[C@H](O)[C@@H](C)/C=C(\C)[C@H](OC(N)=O)[C@@H](OC)/C=C\C=C(/C)C(=O)NC(=CC1=O)C2=O` [Geldanamycin], the remaining activity at 10 µM at ABL2/ARG turned out to be 115%; at BLK, 121%; at LYN B it was 111%; at PDK4/PDKH4 it was 100%; at c-Src, 110%; on PEAK1 it was 108%. The remaining activity at 10 µM worked out at 113% on FGR; 121% on FYN; 106% at PASK; 104% on TRKA; 99.5% on TRKC; 125% at LCK. Further, the remaining activity at 10 µM turned out to be 103% on YES/YES1, 100% at ABL1 and 104% at DDR1 (setting [1]). The “activity against the 16-kinase panel” value in the experiment with 16-kinase panel was “inactive”. In the experiment with HSP90AB1, the “pActivity, HSP90AB1” value was 6.99. Besides, the “pActivity, TRAP1” value in the experiment with TRAP1 is 6.18.
On to `CC(C)c1cc(C(=O)N2Cc3ccc(CN4CCN(C)CC4)cc3C2)c(O)cc1O` [Onalespib], for which the “% Enzyme Activity (relative to DMSO controls)” value on ABL2/ARG worked out at 104.31%; at BLK, 107.96%; on LYN B, 109.85%; on PDK2/PDHK2, 75.57%; on PDK4/PDKH4, 96.17%; on c-Src, 97.5%. Further, the “% Enzyme Activity (relative to DMSO controls)” value at PEAK1 is given as 102.81%; at FGR it was 101.62%; at FYN, 106.38%; on PASK, 105.18%; on TRKA, 99.91%; on TRKC it was 89.51%. The “% Enzyme Activity (relative to DMSO controls)” value at LCK turned out to be 100%; at YES/YES1, 99.53%; on ABL1, 103.3%; at DDR1 (setting [1]), 87.99%. Besides, the remaining activity at 10 µM on ABL2/ARG stood at 105%; on BLK, 108%; on LYN B it was 110%; on PDK2/PDHK2 (read-out: % Enzyme Activity (relative to DMSO controls)), 79.6%; on PDK4/PDKH4, 96.5%; at c-Src, 98.7%. The remaining activity at 10 µM on PEAK1 came out at 104%; on FGR, 102%; at FYN, 108%; on PASK, 100%; on TRKA, 105%; on TRKC, 93%. The remaining activity at 10 µM was 100% on LCK, 99.6% at YES/YES1, 105% on ABL1 and 106% on DDR1 (setting [1]). For the same molecule, the “number of off-target kinases experimentally identified, In vitro binding (KinomeSCAN)” value in the experiment with 382 unique human kinases came out at 0. Also, the “activity against the 16-kinase panel” value in the experiment with 16-kinase panel was “inactive”. Further, the “pActivity, HSP90AB1” value in the experiment on HSP90AB1 is reported as 6.99.
As for `CN[C@@H]1C[C@H]2O[C@@](C)([C@@H]1OC)n1c3ccccc3c3c4c(c5c6ccccc6n2c5c31)C(=O)NC4` [Staurosporine], the “DDR1 - % activty” value on DDR1 was 87.08%; on DDR1 (Stauro Conc. 1.25E-06 M), 0.78%; on DDR1 (Stauro Conc. 1.95E-08 M), 5.70%; at DDR1 (Stauro Conc. 2.00E-05 M) it was -0.41%; on DDR1 (Stauro Conc. 3.05E-10 M) it was 101.08%; on DDR1 (Stauro Conc. 4.88E-09 M) it was 36.56%. Moreover, the “DDR1 - % activty” value at DDR1 (Stauro Conc. 7.63E-11 M) was determined as 100.44%; at DDR1 (Stauro Conc. 7.81E-08 M) it was 1.19%. The molecule also returned an HILLSLOPE on DDR1 (DDR1, single replicate curves) of -1.76.
